In patent publication US20220220533A1, “METHOD OF DIAGNOSING AND MONITORING SUBSTANCE ADDICTION OR BEHAVIORAL ADDICTION USING C-KIT BIOMARKER” (Wuhan University, priority 2019, published 2022):
Structures can show the parent of a compound that is named as a salt.

Assays:
c-Kit [1] = target: T1, c-Kit (Rattus norvegicus, UniProt F7EWK5); type: in vivo; conditions: rats, imatinib mesylate 30 mg/kg i.p. 30 min before morphine or saline
T1 construct: from tissue; host or cells: rat brain (nucleus accumbens, prefrontal cortex, hippocampus and other regions)
Experimental: (§1) After 1 h, anesthesia and perfusion were performed, a brain tissue was fixed with a 4% paraformaldehyde solution, dehydrated in alcohol solutions with different concentrations, hyalinized in xylene, embedded in paraffin, and then cut into 3 μm-thick sections. Tissues were deparaffinized, boiled in 0.01M sodium citrate buffer (pH 6.0) for 10-15 min, and cooled in cold water to room temperature.

morphine CPP [2] = test: Formation of morphine conditioned place preference (CPP) in mice; type: in vivo; conditions: imatinib mesylate 45 mg/kg i.p. 30 min before morphine 15 mg/kg s.c., test day 10
[3] = test system: high-sugar and high-fat food CPP; test: Formation of conditioned place preference on high-sugar and high-fat food in rats; type: in vivo, rat; conditions: imatinib mesylate 1, 5, 10, 20 and 30 mg/kg i.p.
[4] = test system: high-sugar and high-fat food CPP; test: High-sugar and high-fat food CPP after environmental or unconditioned re-exposure, nucleus accumbens microinjection; type: in vivo, rat; conditions: rats
c-Kit [5] = target: T1, c-Kit; type: in vivo; conditions: gambling rats, imatinib mesylate 30 mg/kg
gambling behavior [6] = test: Rat gambling behavior model (rGT), Example 9; type: in vivo; conditions: rats, imatinib mesylate 30 mg/kg
Experimental: A gambling behavior model of rats was established: animals were first accustomed to the operating chambers twice a day for 30 min each time, during which sucrose granules were placed on the reaction wells and the food banks. Animals were then trained to poke their noses into one of the luminescent reaction wells within 10 s to obtain a reward. Space positions of the stimulus light were varied in different experiments of wells 1, 2, 4 and 5. Each session consisted of 100 trials lasting approximately 30 min. After 5 trials, animals continued to complete 100 trials. Animals were then trained 7 times for forced-choice rGT (or an rGT variant of the control group), followed by a completely free-choice task, ensuring that all animals had the same experience in the four reinforcement conditions and were designed to prevent simple prejudice against specific wells. The percentage of animals selected for a particular option trial was calculated according to the formula […].

gambling behavior [7] = test: Dose effect on gambling behavior in rats under gambling task (rGT) conditions; type: in vivo, rat
Experimental: A gambling behavior model of rats was established: firstly, the animals were acclimated to the operating chamber twice a day for 30 min each time, during which sucrose granules were placed on the reaction wells and the food bank. After acclimation, animals were trained to poke their noses into one of the luminescent reaction wells within 10 s to obtain a reward. Spatial positions of the stimulus light would appear in different wells of wells 1, 2, 4 and 5 in different experiments. Each session consisted of 100 trials lasting approximately 30 min. Animals were then trained 7 times for forced-choice rGT (or an rGT variant of the control group), and then underwent a completely free-choice task. This ensured that all animals had the same experience under the four reinforcement conditions and were designed to prevent simple prejudice against specific wells. The percentage of trials in which animals chose a particular option was calculated according to the formula in reference: Choices of a particular option/Total choices of 100 (Di C P, Manvich D F, Pushparaj A, et al. Effects of disulfiram on choice behavior in a rodent gambling task: association with catecholamine levels[J]. Psychopharmacology, 2018, 235(1):23-35). Each experiment lasted 30 min and experimental subjects responded with a nose poke on the illuminated food bank, which turned off the tray light and triggered the initiation of a 5-s intertrial interval (ITT). At the end of the ITI, wells 1, 2, 4 and 5 were illuminated for 10 s (in the forced-choice version of the task used in the training, only one well was illuminated).
Explanation to the above table: four wells in the experimental apparatus were respectively provided with different reward probability and penalty probability, as well as corresponding reward sucrose amount and penalty time.
After training, the rats were given with drugs. […] The rats in the direct administration group were directly given with imatinib (1, 5, 10, 20 and 30 mg/kg, ip) or saline (1 mL/kg, ip) without being placed in the experimental device. […]

morphine CPP [8] = conditions: mice
[9] = test system: high-sugar and high-fat food CPP; test: High-sugar and high-fat food CPP after environmental or unconditioned re-exposure, intraperitoneal administration; conditions: rats
c-Kit [10] = type: in vivo, rat; conditions: rats, 1 h after acute morphine 10 mg/kg s.c., compared with normal rats
Experimental: as §1

c-Kit [11] = type: in vivo, rat
Experimental: Under the guidance of NIR-II fluorescence imaging, dynamic changes of the brain regions of the rats were dynamically monitored and photographed at 2 h, 6 h, 8 h and 12 h with a near-infrared II region imaging camera, respectively, so as to indicate changes in a phosphorylation level of c-Kit protein.

[12] = rats exposed to the environment, 10, 20 and 30 mg/kg ip, compared to control group

T1 sequence (F7EWK5 26-978): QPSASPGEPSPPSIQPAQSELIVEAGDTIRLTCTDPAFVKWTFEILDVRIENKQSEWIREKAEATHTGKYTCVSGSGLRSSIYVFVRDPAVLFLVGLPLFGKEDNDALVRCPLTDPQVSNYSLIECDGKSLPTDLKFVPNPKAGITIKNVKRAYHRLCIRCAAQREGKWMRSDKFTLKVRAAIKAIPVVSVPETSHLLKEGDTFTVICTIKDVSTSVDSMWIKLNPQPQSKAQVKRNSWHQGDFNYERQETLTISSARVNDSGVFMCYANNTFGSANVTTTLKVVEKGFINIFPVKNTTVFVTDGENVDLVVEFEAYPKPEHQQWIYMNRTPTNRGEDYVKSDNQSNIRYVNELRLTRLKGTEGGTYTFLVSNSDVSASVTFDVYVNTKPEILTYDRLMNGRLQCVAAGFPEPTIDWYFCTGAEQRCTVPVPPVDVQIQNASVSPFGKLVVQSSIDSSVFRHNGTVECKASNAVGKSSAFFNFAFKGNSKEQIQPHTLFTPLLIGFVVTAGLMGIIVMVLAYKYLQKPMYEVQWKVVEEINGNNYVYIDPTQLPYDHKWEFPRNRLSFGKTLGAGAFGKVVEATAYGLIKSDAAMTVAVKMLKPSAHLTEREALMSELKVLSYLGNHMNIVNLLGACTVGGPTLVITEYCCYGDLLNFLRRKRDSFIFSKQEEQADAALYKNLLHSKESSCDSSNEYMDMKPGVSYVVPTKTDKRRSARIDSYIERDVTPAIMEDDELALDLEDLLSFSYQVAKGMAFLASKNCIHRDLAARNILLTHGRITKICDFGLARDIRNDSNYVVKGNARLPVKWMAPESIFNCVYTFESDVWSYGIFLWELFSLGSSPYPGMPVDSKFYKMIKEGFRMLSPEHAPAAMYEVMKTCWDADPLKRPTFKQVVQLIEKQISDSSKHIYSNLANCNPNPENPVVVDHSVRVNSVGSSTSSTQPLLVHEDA

Row | Structure (SMILES) | phosphorylation activity of c-Kit protein in nucleus accumbens, prefrontal cortex and hippocampus (c-Kit [1]) | formation of conditioned place preference (CPP score) (morphine CPP [2]) | formation of conditioned place preference on high-sugar and high-fat food [3] | food-seeking behavior caused by the environment and food ([4]; nucleus accumbens microinjection 4 μg/0.5 μL) | ignition of CPP ([4]; nucleus accumbens microinjection, after 2 weeks) | phosphorylation level of c-Kit (c-Kit [5]) | gambling behavior (gambling behavior [6]) | effect on gambling choice in rGT (gambling behavior [7]; rats as directly administered, any dose (1-30 mg/kg ip)) | choice at P4 in rGT (gambling behavior [7]; [12]) | optimal choice at P2 in rGT (gambling behavior [7]; [12]) | CPP Score after re-exposure to environmental cues (morphine CPP [8]; imatinib mesylate 45 mg/kg i.p. 30 min before re-exposure) | ignition of morphine CPP (morphine CPP [8]; small dose of morphine 5 mg/kg i.p., after 1 week) | ignition of CPP ([9]; i.p. administration, small amount of high-sugar and high-fat food, after 2 weeks) | food-seeking behaviors induced by environment and food ([9]; imatinib mesylate 1, 5, 10, 20 and 30 mg/kg i.p. after re-exposure) | phosphorylation level of c-Kit protein in nucleus accumbens regions (c-Kit [10]) | phosphorylation level of c-Kit protein in prefrontal cortex, hippocampus and other regions (c-Kit [10]) | time at which enrichment intensity of the probes reached a peak (c-Kit [11]; rats after acute morphine administration) | phosphorylation activity of c-Kit in the brains of the rats (brain brightness) (c-Kit [11]; rats, acute morphine 10 mg/kg s.c., contrast with normal saline group)
1 | Cc1ccc(NC(=O)c2ccc(CN3CCN(C)CC3)cc2)cc1Nc1nccc(-c2cccnc2)n1 [imatinib mesylate] | significantly decreased | could not be formed normally | inhibited | inhibited | not ignited | significantly inhibited | significantly eliminated | no significant effect | reduced | significantly increased | significantly reduced | not ignited | not ignited | inhibited |  |  |  | 
2 | CN1CC[C@]23c4c5ccc(O)c4O[C@H]2[C@@H](O)C=C[C@H]3[C@H]1C5 [morphine] |  |  |  |  |  |  |  |  |  |  |  |  |  |  | significantly increased | no significant change | 6 h | significantly enhance
